Drawing on patent US20100093777A1 (Takeda Pharmaceutical Company Limited, priority 2007, published 2010), this text covers IC50 and melting point for four compounds.

pIC50: −log10 of the molar value.

Data set [1] concerns the target T1, Human ACC1 (Homo sapiens, UniProt Q13085).
T1 construct: His tag (from the pFAST-BacHTc vector); own knowledge: N-terminal 6xHis with TEV site; made in house; host or cells: SF-9 insect cells, recombinant baculovirus BAC-ACC1
The experiment in a line: Measurement of ACC1 inhibitory activity (recombinant enzyme, malachite green absorbance). Type of data set: biochemical. The conditions noted are these: recombinant human ACC1 8 μg/ml; 30° C.; 200 μM ATP, 200 μM Acetyl-CoA; absorbance 620 nm. As for the experimental part: The ACC1 inhibitory action of the compound of the present invention was evaluated by the following method.
Human ACC1 gene was cloned by PCR using a human liver cDNA library (Clontech) as a template and Primer 1 and Primer 2 shown below. Primer 1 and Primer 2 were prepared by adding SalI, NotI restriction enzyme recognition sequence based on the information of the base sequence (Genbank Accession U19822) of human ACC1 gene.
PCR was performed using a Pyrobest DNA polymerase (TAKARA BIO INC.) The obtained PCR product was cloned to pT7 Blue vector (Novagen) and, after confirmation of the base sequence, digested with restriction enzymes SalI and NotI. The obtained DNA fragment was inserted to pFAST-BacHTc (Invitrogen) digested with restriction enzymes SalI and NotI to give expression plasmid ACC1/pFAST-BacHTc.
Using the expression plasmid and BAC-TO-BAC Baculovirus Expression System (Invitrogen), virus stock BAC-ACC1 of recombinant Baculovirus was prepared.
SF-9 cells (Invitrogen) were inoculated to a medium (1 L) for insect cells (Sf-900IISFM medium (Invitrogen) containing 10% fetal bovine serum (Trace), 50 mg/L Gentamicin (Invitrogen) and 0.1% Pluronic F-68 (Invitrogen)) at 1×10^6 cells/mL, and cultured with shaking at 27° C., 100 rpm in a 2 L Erlenmeyer flask.
After 24 hr of the culture, recombinant Baculovirus BAC-ACC1 (10 mL) was added, and the cells were further cultured for 3 days. The culture medium was centrifuged at 1000×g for 5 min to give virus-infected cells. The cells were washed with phosphate buffered saline (Invitrogen), and centrifuged under the same conditions, and the obtained cells were cryopreserved at −80° C.
The cryopreserved cells were thawed in ice and suspended in 100 mL of 25 mM HEPES buffer (pH 7.5) containing 10% Glycerol, 0.13 M NaCl, 1 mM EDTA, 25 mM Sodium β-Glycerophosphate and 1 mM Sodium Orthovanadate, and supplemented with Complete Protease Inhibitor (Nippon Boehringer Ingelheim Co., Ltd.). The obtained suspension was homogenized 3 times in a polytron homogenizer (Kinematica) at 20,000 rpm for 30 sec. The obtained cell disruption solution was clarified by centrifugation at 185700×g for 50 min, and filtered through a 0.45 μm filter. The filtrate was passed through a column packed with 12 mL of Ni-NTA Super Flow Gel (QUIAGEN) at a flow rate of about 5 mL/min. The column was washed with buffer A (50 mM HEPES (pH 7.5) containing 0.3 M NaCl), further washed with buffer A containing 20 mM Imidazole, and eluted with buffer A containing 100 mM Imidazole. The eluate was concentrated with Vivaspin 20 (Vivascience) with a molecular weight cut off of 30K. The obtained concentrate was dialyzed against Sephadex G-25 (Amersham Biosciences, 358 ml) equilibrated with 50 mM HEPES (pH 7.5) containing 10 mM MgCl2, 2 mM Dithiothreitol, 10 mM Tripotassium Citrate and 0.3 M NaCl. The inner dialysate was concentrated with Vivaspin 20 (Vivascience) with a molecular weight cut off of 30K, and the concentrate was filtered through a 0.22 μm filter to give ACC1. The obtained ACC1 was cryopreserved at −80° C.
ACC1 (0.93 mg/ml) obtained in the above-mentioned (2) was diluted with an enzyme reaction buffer (50 mM HEPES (pH 7.5), 10 mM MgCl2, 10 mM Tripotassium Citrate, 2 mM Dithiothreitol, 0.75 mg/ml Fatty acid free BSA) to concentration of 8 μg/ml, and the mixture was added to each well of 384 well assay plate (Nunc 265196) by 10 μl.
Thereafter, ACC1 inhibitory rate (%) was measured in the same manner as in the below-mentioned Experimental Example 2-(3), and IC50 value was calculated.
ACC2 (Nd) (1.1 mg/ml) obtained in the above-mentioned (2) was diluted with an enzyme reaction buffer (50 mM HEPES (pH 7.5), 10 mM MgCl2, 10 mM Tripotassium Citrate, 2 mM Dithiothreitol, 0.75 mg/ml Fatty acid free BSA) to a concentration of 6.4 μg/ml, and the mixture was added to each well of a 384 well assay plate (Nunc 265196) by 10 μl. […]

The target in data set [2] is T2, Human ACC2 (Nd, N terminal deleted) (Homo sapiens, UniProt O00763).
T2 construct: His tag (from the pFAST-BacHTa vector); own knowledge: N-terminal 6xHis with TEV site; made in house; host or cells: SF-9 insect cells, recombinant baculovirus BAC-ACC2 (Nd)
T2 sequence (O00763 117-2458 limits assumed, stated change not applied): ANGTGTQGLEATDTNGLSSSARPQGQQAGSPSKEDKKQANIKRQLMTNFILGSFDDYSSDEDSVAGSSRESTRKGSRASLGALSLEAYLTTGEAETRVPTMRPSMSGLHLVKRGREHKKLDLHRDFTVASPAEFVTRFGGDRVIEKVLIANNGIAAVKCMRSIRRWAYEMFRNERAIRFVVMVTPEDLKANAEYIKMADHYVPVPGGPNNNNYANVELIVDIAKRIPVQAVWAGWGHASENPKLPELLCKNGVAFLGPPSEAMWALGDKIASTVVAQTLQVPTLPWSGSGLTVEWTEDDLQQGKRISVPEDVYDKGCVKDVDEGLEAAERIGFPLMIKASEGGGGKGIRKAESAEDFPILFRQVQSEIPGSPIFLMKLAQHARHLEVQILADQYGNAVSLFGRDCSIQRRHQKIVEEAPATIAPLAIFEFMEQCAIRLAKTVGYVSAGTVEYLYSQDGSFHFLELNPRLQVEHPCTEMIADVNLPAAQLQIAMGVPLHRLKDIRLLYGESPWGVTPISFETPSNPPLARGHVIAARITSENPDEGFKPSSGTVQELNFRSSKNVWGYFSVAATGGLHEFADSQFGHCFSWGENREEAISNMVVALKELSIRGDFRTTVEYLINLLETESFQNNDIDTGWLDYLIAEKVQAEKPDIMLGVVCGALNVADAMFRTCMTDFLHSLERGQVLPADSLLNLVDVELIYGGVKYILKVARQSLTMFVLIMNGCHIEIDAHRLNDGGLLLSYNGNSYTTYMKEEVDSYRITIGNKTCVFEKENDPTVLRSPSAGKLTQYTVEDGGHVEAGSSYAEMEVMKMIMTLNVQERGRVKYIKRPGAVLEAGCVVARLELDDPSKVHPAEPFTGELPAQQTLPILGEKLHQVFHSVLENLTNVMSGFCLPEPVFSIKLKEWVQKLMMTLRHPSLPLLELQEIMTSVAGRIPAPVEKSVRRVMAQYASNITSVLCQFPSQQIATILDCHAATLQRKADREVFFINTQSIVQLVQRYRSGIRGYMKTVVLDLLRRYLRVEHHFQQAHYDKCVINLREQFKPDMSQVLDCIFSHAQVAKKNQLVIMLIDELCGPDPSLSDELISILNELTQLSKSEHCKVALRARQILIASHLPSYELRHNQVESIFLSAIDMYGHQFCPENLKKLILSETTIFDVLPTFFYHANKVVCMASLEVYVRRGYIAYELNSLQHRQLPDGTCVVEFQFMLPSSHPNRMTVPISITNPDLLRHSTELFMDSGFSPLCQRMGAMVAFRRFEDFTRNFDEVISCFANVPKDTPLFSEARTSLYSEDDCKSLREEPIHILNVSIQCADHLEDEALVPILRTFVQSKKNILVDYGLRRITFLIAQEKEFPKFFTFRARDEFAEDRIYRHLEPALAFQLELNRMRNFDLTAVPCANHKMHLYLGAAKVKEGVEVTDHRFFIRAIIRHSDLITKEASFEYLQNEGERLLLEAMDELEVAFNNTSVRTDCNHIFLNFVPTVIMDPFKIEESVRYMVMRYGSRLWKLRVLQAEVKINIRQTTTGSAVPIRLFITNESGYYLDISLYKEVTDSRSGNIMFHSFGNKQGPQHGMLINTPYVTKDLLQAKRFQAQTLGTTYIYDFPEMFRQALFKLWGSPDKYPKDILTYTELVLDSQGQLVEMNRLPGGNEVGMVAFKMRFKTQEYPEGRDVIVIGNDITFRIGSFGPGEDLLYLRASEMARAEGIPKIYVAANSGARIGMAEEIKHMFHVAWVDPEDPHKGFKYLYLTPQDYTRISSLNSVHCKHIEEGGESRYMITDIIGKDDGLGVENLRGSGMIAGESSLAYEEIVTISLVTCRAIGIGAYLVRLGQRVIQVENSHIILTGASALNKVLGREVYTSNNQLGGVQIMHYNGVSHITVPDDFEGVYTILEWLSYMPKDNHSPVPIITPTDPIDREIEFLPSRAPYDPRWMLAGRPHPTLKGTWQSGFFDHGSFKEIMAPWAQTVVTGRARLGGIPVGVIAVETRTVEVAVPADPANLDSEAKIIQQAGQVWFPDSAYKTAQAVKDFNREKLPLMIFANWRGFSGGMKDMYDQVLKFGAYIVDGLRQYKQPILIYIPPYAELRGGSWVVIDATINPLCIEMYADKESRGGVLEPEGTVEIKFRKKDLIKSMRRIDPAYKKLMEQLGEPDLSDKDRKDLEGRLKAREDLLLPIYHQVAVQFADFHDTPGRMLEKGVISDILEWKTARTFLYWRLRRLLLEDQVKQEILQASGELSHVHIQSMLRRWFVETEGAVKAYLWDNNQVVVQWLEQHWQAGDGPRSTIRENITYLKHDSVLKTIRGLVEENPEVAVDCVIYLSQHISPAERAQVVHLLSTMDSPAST
The experiment in a line: Measurement of ACC2 inhibitory activity (recombinant ACC2 (Nd), malachite green absorbance). In kind it is biochemical. The settings on record: recombinant human ACC2 (Nd) 6.4 μg/ml; 30° C.; 200 μM ATP, 200 μM Acetyl-CoA; absorbance 620 nm. As for the experimental part: The ACC2 inhibitory action of the compound of the present invention was evaluated by the following method.
Human ACC2 gene was cloned by PCR using a human skeletal muscle cDNA library (Clontech) as a template and Primer 1 and Primer 2 shown below. Primer 1 and Primer 2 were prepared by adding SalI, XbaI restriction enzyme recognition sequences based on the information of the base sequence (Genbank Accession U89344) of human ACC2 gene.
PCR was performed using Pyrobest DNA polymerase (TAKARA BIO INC.). The obtained PCR product was cloned to pT7 Blue vector (Novagen) and, after confirmation of the base sequence, digested with restriction enzymes SalI and XbaI. The obtained DNA fragment was inserted into pFAST-BacHTa (Invitrogen) digested with restriction enzymes SalI and XbaI to give expression plasmid ACC2/pFAST-BacHTa.
PCR was performed using the expression plasmid as a template and Primer 3 and Primer 4 shown below to prepare a plasmid to be used for expression of ACC2 free of mitochondrial targeting sequence.
PCR was performed using Pyrobest-DNA polymerase (TAKARA BIO INC.). The obtained PCR product was cloned to pT7 Blue vector (Novagen) and, after confirmation of the base sequence, digested with restriction enzymes SalI and AflII. The obtained DNA fragment was inserted into pFAST-BacHTa (Invitrogen) digested with restriction enzymes SalI and AflII to give expression plasmid ACC2mito7/pFAST-BacHTa.
Using the expression plasmid and BAC-TO-BAC Baculovirus Expression System (Invitrogen), virus stock BAC-ACC2 (N terminal deleted (hereinafter Nd)) of recombinant Baculovirus was prepared.
SF-9 cells (Invitrogen) were inoculated to a medium (2 L) for insect cells (Sf-900IISFM medium (Invitrogen) containing 10% fetal bovine serum (Trace), 50 mg/L Gentamicin (Invitrogen), 0.1% Pluronic F-68 (Invitrogen)) at 0.5×10^6 cells/mL, and cultured with shaking in Wave Bioreactor (Wave) at 27° C., 20 rpm, rocking angle […], oxygen concentration 30%.
On day 4 of the culture, 3 L of the medium for insect cells was added, the rocking angle was set to 8°, and the cells were cultured. On day 5 of the culture, 100 mL of recombinant Baculovirus BAC-ACC2 (Nd) was added, 5 L of the medium for insect cells was further added, the rocking angle was set to 11°, and the cells were cultured for 3 days. The culture medium was centrifuged at 1000×g for 10 min to give virus-infected cells. The cells were washed with phosphate buffered saline (Invitrogen) and centrifuged under the same conditions. The obtained cells were cryopreserved at −80° C.
The cryopreserved cells were thawed in ice and suspended in 900 mL of 25 mM HEPES buffer (pH 7.5) containing 10% Glycerol, 0.13 M NaCl, 1 mM EDTA, 25 mM Sodium βGlycerophosphate and 1 mM Sodium Orthovanadate, and supplemented with Complete Protease Inhibitor (Nippon Boehringer Ingelheim Co., Ltd.). The obtained suspension was homogenized 3 times in a polytron homogenizer (Kinematica) at 20,000 rpm for 30 sec. The obtained cell disruption solution was clarified by centrifugation at 31000×g for 60 min, and filtered through a 0.45 μm filter. The filtrate was passed through a column packed with 60 mL of Ni-NTA Super Flow Gel (QUIAGEN) at a flow rate of about 5 mL/min. The column was washed with buffer A (50 mM HEPES (pH 7.5) containing 0.3 M NaCl), further washed with buffer A containing 20 mM Imidazole, and eluted with buffer A containing 100 mM Imidazole. The eluate was concentrated with Vivaspin 20 (Vivascience) with a molecular weight cut off of 30K. The obtained concentrate was dialyzed against 50 mM HEPES (pH 7.5) containing 10 mM MgCl2, 2[…] Dithiothreitol, 10 mM Tripotassium Citrate and 0.3 M NaCl. The inner dialysate was filtered through a 0.22 μm filter to give ACC2 (Nd). The obtained ACC2 (Nd) was cryopreserved at −80° C.
A test compound was dissolved in dimethyl sulfoxide (DMSO) and the mixture was diluted with an enzyme reaction buffer and the resulting solution (5 μl) was added to each well.

On to `CCNC(=O)Nc1sc2nc(C)c(C)cc2c1C(=O)N1CCC(N2CCCC3(C2)N=C(C)N(C(C)C)C3=O)CC1` (stereo not shown) [Example 56], for which the results for the pIC50 in data set [1] and in data set [2] were 7.00 to 8.00 and 8.00 to 9.00, respectively. Take `CNC(=O)Nc1sc2nc(C)ccc2c1C(=O)N1CCC(N2CCCC3(CCN(C(C)C)C3=O)C2)CC1` (stereo not shown) [Example 64, N-(3-{[4-(2-isopropyl-1-oxo-2,7-diazaspiro[4.5]dec-7-yl)piperidin-1-yl]carbonyl}-6-methylthieno[2,3-b]pyridin-2-yl)-N′-methylurea]: the melting point lay within 195 to 198 °C.

For the compound `CNC(=O)Nc1sc2nc(C)ccc2c1C(=O)N1CCC(N2CCCC3(C2)CC(C)(C)OC3=O)CC1` (stereo not shown) [Example 78, N-(3-{[4-(3,3-dimethyl-1-oxo-2-oxa-7-azaspiro[4.5]dec-7-yl)piperidin-1-yl]carbonyl}-6-methylthieno[2,3-b]pyridin-2-yl)-N′-methylurea], the pIC50 in data set [1] is 7.00 to 8.00; in data set [2] it was 8.00 to 9.00.

`CCNC(=O)Nc1sc2nc(C)ccc2c1C(=O)N1CCC(N2CCCC3(C2)CC(C)(C)OC3=O)CC1` (stereo not shown) [Example 79, N-(3-{[4-(3,3-dimethyl-1-oxo-2-oxa-7-azaspiro[4.5]dec-7-yl)piperidin-1-yl]carbonyl}-6-methylthieno[2,3-b]pyridin-2-yl)-N′-ethylurea]: the pIC50 was 7.00 to 8.00 in data set [1] and 8.00 to 9.00 in data set [2].

As usually defined, the pIC50 is −log10 of the IC50, conventionally taken in molar units. Usually melting point stands for the temperature, or range, at which the solid turns liquid.
